Assay [1] deals with full-thickness flank skin from the fetal rats. Description: Transepidermal water loss (TEWL) of fetal rat skin explants in organ culture (barrier function). The following applies: for effect on TEWL / barrier function: 50 μM; for EC50: Rattus norvegicus, read-out: concentration of half-maximal effect on barrier development (TEWL); for EC50 / concentration of maximal effect on barrier development (TEWL): dose response, FIGS. 4a-4c. It counts as cell-based, Sprague-Dawley rats. As for the experimental part:
Timed pregnant Sprague-Dawley rats (plug date=day 0) were obtained from Simonsen (Gilroy, Calif., USA) and fetuses were delivered prematurely on day 17. Transepidermal water loss (TEWL) was measured in excised full-thickness flank skin from the fetal rats after various times in culture. The skin explants were placed dermis-side down onto collagen membrane inserts (3μ pore size) in medium M-199 (serum-free), and submerged, and the lateral edges and dermal surface were sealed with petrolatum, such that water loss occurred only through the epidermal surface. Explant samples were weighed hourly, at ambient temperature (24±3° C.) and humidity (40±5%), over 6 hours using a Cahn balance (sensitivity 0.001 mg). TEWL levels are reported as milligrams of water lost per square millimeter of epidermal surface per hour. Fatty acids and clofibrate (p-chlorophenoxyisobutyric acid) were added to the medium bound to 0.5% (weight/volume) bovine serum albumin (BSA). Isoprenoids and oxysterols were added in ethanol (≦0.1%) and juvenile hormone III was added as a dimethylsulfoxide (DMSO) solution (≦0.1%). Control explants were incubated in the presence of the appropriate vehicle (≦0.1% DMSO or ethanol, and/or ≦0.5% BSA). Skin explants from gestational day 17 rats were incubated in the presence of either various activators or vehicle, and transepidermal water loss was measured after two days. The activators and the concentrations at which they were used were as follows: […]

For assay [2], the system named is Skin explants from gestational day 17 rats. The assay is described as follows: Light and electron microscopy of fetal rat skin explants (epidermal maturation). Format: cell-based. The following applies: 48 hours. As for the experimental part: Samples for light microscopy were fixed in modified Karnovsky's solution, plastic-embedded, and 0.5 μm sections were stained with toluidine. Samples for electron microscopy were minced into 1 mm^3 pieces, fixed in modified Karnovsky's fixative, and processed. Sections were stained with uranyl acetate and lead citrate, post-fixed in ruthenium tetroxide, and examined using a Zeiss 10A electron microscope.
Explants incubated in various media woe examined by light microscopy. The incubation di included control medium (containing no activators) and various media individually containing 300 μM clofibrate, 100 μM juvenile hormone III, 300 μM oleic acid, 30 μM linoleic acid, 50 μM farnesol, and various concentrations of 9-cis-retinoic acid, all-trans-retinoic acid, and 1,25-dihydroxy vitamin D3.
Observations were then made of the ultrastructural maturation of the outer epidermis in explants that had been incubated in the various media and then post-fixed in ruthenium tetroxide. Media identical to those of the preceding paragraph were used, excluding the retinoic acid-containing and 1,25-dihydroxy vitamin D3-containing media.

The test system of the next assay is involucrin protein. The assay is described as follows: Involucrin protein level in keratinocytes by Western Blot. Format: cell-based, Human. The following applies: 0 to 15 μM, 0.03 mM Ca++, 24 hours. As for the experimental part: Measurements of the level of the involucrin protein itself were performed in the culture medium by Western Blot. Various incubations were performed, in media containing clofibrate at concentrations ranging from 0 (vehicle only) to 400 μM and calcium ion at both 0.03 mM and 1.2 mM. The results are shown in FIG. 9a for tests with calcium ion at 0.03 mM, and in FIG. 9b for tests with calcium ion at 1.2 mM. In these figures, the protein contents are expressed as percents of the respective measurements taken from media incubated for the same period of time but in the absence of clofibrate.
The procedures of Example 8 were followed, and measurements were taken on the involucrin protein levels from cells incubated at various concentrations of farnesol and juvenile hormone III ranging from 0 (vehicle only) to 15 μM, in media containing 0.03 mM and 1.2 mM calcium ion, for 24 hours. The results are shown in FIG. 10 for farnesol and FIG. 11 for juvenile hormone III, in 0.03 mM Ca^++.
Protein concentration was assessed by protein electrophoresis and Western blotting. Cells were lysed is 2% SDS and the lysate sonicated. Protein determinations were made by use of a Bicinchoninic add protein assay (Pierce Chemical Company, Rockford, Ill. USA). Following protein determination, equal amounts at protein (50 μg) were separated by electrophoresis an 7.5% polyacrylamide gels and electroblotted onto polyvinylidene […] membranes (0.2-μ, obtained from Bio-Rad Laboratories Hercules, Calif., USA). Involucrin protein was detected by incubation over-night at 4° C. C. with a polyclonal rabbit anti-human involucrin antibody (1:1000 dilution). The involucrin-specific bands on the autoradiograms were quantitated by densitometry by densitometry. Transglutaminase protein expression was measured in a similar mmaner, using stacking, sample and running buffers containing 4 M urea, and the gels following electrophoresis were washed in 4 M urea, 25 mM TRIS-HCl, pH 7.4, 7.5 mM NaCl, 0.1 mM dithiothreitol (DTT), and 2 mM ethylenediamine tetraacetic acid for 90 minutes prior to electoblotting, allowing the transglutaminase to be detected by antibody. Specific bands on the autoradiograms were quantified by densitometry.
(In western blotting, separated proteins are transferred to a membrane and probed.)

For assay [3], the system named is Normal human keratinocytes. The assay is described as follows: Cornified envelope formation (35S incorporation) in keratinocytes. Format: cell-based. The settings on record: 10 μM, 0.03 mM calcium, 48-hour.
A further assay relates to transglutaminase mRNA. Description: Transglutaminase mRNA in keratinocytes by Northern Blot. Format: cell-based, Human. The following applies: low calcium (0.03 mM), 24 hours, 10 μM. As for the experimental part:
(§1) Human keratinocyte cells were incubated in culture containing calcium at a concentration of 0.03 mM Ca^++ (a level that is too low to induce differentiation). Also included in the culture medium were clofibrate at 400 μM or ETYA at 10 μM and 20 μM, while separate cell cultures were maintained as controls with neither clofibrate nor ETYA. The production of mRNA for both involucrin and transglutaminase was measured at intervals over a 48-hour time period (0, 6, 12, 24, and 48 hours) by Northern Blot analysis. In each case, the lighter bars represent the control cells and the darker bars the cells incubated in the clofibrate-containing medium. The degree of mRNA generated is expressed as a percent of the control at zero hours.
(§2) Human epidermis was isolated from newborn foreskins and keratinocytes were plated in serum-free keratinocyte growth medium (“KGM”; Clonetics, San Diego, Calif. USA), using conventional techniques. Cells were treated with either the test compounds in vehicle or vehicle alone (<0.1% ethanol) for 24 or 48 hours. The test compounds were obtained from Sigma Chemical Co. (St. Louis. Mo. USA) and were stored as 15 mM stock solutions at −20° C. Mevalonate was solubilized in sterile water.
(§3) Total RNA was isolated by using TRIZOL (Sigma Chemical Co.), following the manufacturer's protocol. Ethanol-precipitate RNA pellets were suspended in sterile, diethylpyrocarbonate (DEPC)-treated water, and RNA was quantified by absorbance at 260 nm using the 260/280 nm ratio as an index of purity. RNA (15 μg per sample) was size fractionated through a 1% agarose gel containing 2.2 M formaldehyde. RNA integrity was visualized following acridine orange staining of the gel following electrophoresis. The RNA was transfered to a nylon membrane that was subsequently baked at 80° C. for 2 hours. Blots were hybridized with the appropriate ^32p-labeled probe overnight at 65° C. Washes were then performed in a solution containing 0.1% SSC and 0.1% sodium dedecyl sulfate (SDS) for 20 minutes at room temperature, followed by a 20-minute wash at 65° C. Autoradiography was performed at −70° C. Blots were probed with β-actin to confirm equal loading. Appropriate bands were quantified by densitometry.
(§4) Northern blot analyses were performed on keratinocytes maintained in low calcium (0.03 mM) and incubated for 24 hours in the presence of vehicle alone (<0.1% ethanol) or vehicle containing 25-hydroxycholesterol (10 μM), 22(R)-hydroxycholesterol (10 μM) cholesterol (10 μM), or mevalonate (500 μM) (individually). The mRNA levels of involucrin (“INV”) and transglutaminase (“TG'ase”) are shown in the bar graph of FIG. 14a, the INV indicated by clear bars and the TG'ase by shaded bars, both with error limits shown.

The next assay concerns involucrin mRNA. Description: Involucrin mRNA in keratinocytes by Northern Blot. Format: cell-based, Human. The settings on record: low calcium (0.03 mM), 24 hours, 10 μM. As for the experimental part:
as §1, §2, §3, §4

Here are results for nine compounds from patent USRE37770E1, “Treatment of skin conditions by use of PPARα activators” (The Regents of the University of California, priority 1997, dated 2002).

In the case of `CC(C)=CCC/C(C)=C\CC/C(C)=C\CO` [cis-farnesol], the “effect on TEWL / barrier function” value in assay [1] (two days) is given as “neither mevalonate at 200 μM, 25-hydroxy cholesterol at 50 μM), squalene at 50 μM, geranylgeraniol at 50 μM, cis-farnesol at 50 μM, nor nerolidol at 100 μM significantly affected barrier function”.
Turning to `CC(C)=CCC/C(C)=C/CC/C(C)=C/CC/C=C(\C)CC/C=C(\C)CCC=C(C)C` [squalene], in assay [1] (two days), the “effect on TEWL / barrier function” value is recorded as “neither mevalonate at 200 μM, 25-hydroxy cholesterol at 50 μM), squalene at 50 μM, geranylgeraniol at 50 μM, cis-farnesol at 50 μM, nor nerolidol at 100 μM significantly affected barrier function”.
For the compound `CCCCC/C=C\C/C=C\CCCCCCCC(=O)O` [linoleic acid], in assay [2] (30 μM), the “light microscopy of the epidermis” value is “had both a multi-layered stratum granulosum and a stratum corneum”. For the same compound, in assay [1], the EC50 is around 12.5 µM and the “concentration of maximal effect on barrier development (TEWL)” value (“concentration of maximal effect” below) is on record as “approximately 30 μM”. For the same compound, in assay [1] (explants incubated in 300 μM for two days, p<0.005, n=8), the “effect on TEWL” value is “markedly decreased the TEWL”.
As to `CC(C)=CCC/C(C)=C/CC/C(C)=C/CC/C(C)=C/CO` [geranylgeraniol], the “effect on TEWL / barrier function” value in assay [1] (two days) is given as “neither mevalonate at 200 μM, 25-hydroxy cholesterol at 50 μM), squalene at 50 μM, geranylgeraniol at 50 μM, cis-farnesol at 50 μM, nor nerolidol at 100 μM significantly affected barrier function”.
As to `CCCCC[C@H](O)/C=C/[C@H]1C(=O)C=C[C@@H]1C/C=C\CCCC(=O)O` [prostaglandin J2], the “effect on TEWL / barrier development” value in assay [1] (10 μM, two days) was “had no effect”.
For `CC(C)=CCC/C(C)=C/CC/C(C)=C/CO` [farnesol, 3,7,11,trimethyl-2,6,10-dodecatrienol], the involucrin protein content entry in the assay on involucrin protein is on record as “substantial increases in involucrin protein content”. The “light microscopy of the epidermis” value in assay [2] (50 μM) was “had both a multi-layered stratum granulosum and a stratum corneum”. In addition, the “effect on TEWL / barrier function” value in assay [1] (two days) is reported as “markedly decreased the TEWL”. For the same compound, in assay [1], the EC50 is around 20 µM and the “concentration of maximal effect” value is reported as “approximately 50 μM”. In assay [3], the “rate of cornified envelope formation” value is “substantial increases in the rate of cornified envelope formation”.
Regarding `C=CC(C)(O)CCC=C(C)CCC=C(C)C` (centres unmarked) [nerolidol], in assay [1] (100 μM, two days), the “effect on TEWL / barrier formation” value is listed as “neither mevalonate at 200 μM, 25-hydroxy cholesterol at 50 μM), squalene at 50 μM, geranylgeraniol at 50 μM, cis-farnesol at 50 μM, nor nerolidol at 100 μM significantly affected barrier function”.
`CCCCCCCC/C=C\CCCCCCCC(=O)O` [oleic acid]: the “light microscopy of the epidermis” value in assay [2] (300 μM) was “had both a multi-layered stratum granulosum and a stratum corneum”. Moreover, in assay [1], the EC50 was around 250 µM and the “concentration of maximal effect” value is “approximately 500 μM”.
With `CC(C)CC[C@H](O)[C@@H](C)[C@H]1CC[C@H]2[C@@H]3CC=C4C[C@@H](O)CC[C@]4(C)[C@H]3CC[C@]12C` [22(S)-hydroxycholesterol], in the assay on transglutaminase mRNA, the “transglutaminase (TG'ase) mRNA level compared to the vehicle alone” value is “No effect”. In the assay with involucrin mRNA, the “involucrin (INV) mRNA level compared to the vehicle alone” value was “No effect”.
